Source: patent publication US20260091086A1, “POLYPEPTIDE COMBINATIONS AND USES THEREOF” (MEDIMMUNE LIMITED, priority 2024, published 2026)
Numbered stars: 1 amine (or outer) side, 2 acyl side, 3 side chain; on linkers, the order of the positions; unused ones are H or OH. Bridge positions count the residues as written; N and C are the ends. Square brackets hold non-standard residues; d marks the D form. Side chains are listed from the residue outwards. Ends that are not written are not given here. * marks the point of attachment. C18 diacid = O=C(O)CCCCCCCCCCCCCCCCC(=O)*; γGlu = O=C(O)[C@H](CCC(=O)[*:2])N[*:1]; αMeF = C[C@](N)(Cc1ccccc1)C(=O)O

Columns and labels:
DIO Sprague-Dawley rats [1] = test: Example 5: 19-day Q2D body weight study with Fc-linked agonists; assay type: in vivo, rat; conditions: mono-treatment 0.1 mg/kg Q2D SC, 19 days
Experimental: Study Design: Male DIO Sprague-Dawley rats were fed a high-fat diet (32.5% kcal fat, D12266B; Research Diets) for approximately 6 weeks prior to study start. Rats were dosed every other day (Q2D) SC for 19 days with Vehicle, GLP1-Fc (0.1 or 1 mg/kg), Fc-LAA (0.1 or 2 mg/kg) or a combination of GLP1-Fc and Fc-LAA (0.1+0.1 mg/kg, 0.1+2 mg/kg, 1+0.1 mg/kg or 1+2 mg/kg respectively) with an n=7/group. Body weight was monitored daily through-out study and shown below as % change of vehicle treatment. Data reported as mean±standard error of the mean (SEM). In this experiment, the LAA was an Fc-Amylin, and the GLP-1 agonist was dulaglutide (a GLP-1 agonist covalently linked to an Fc fragment of IgG4).

[2] = tested on: diet-induced obese (DIO) Sprague-Dawley rats; test: Example 2: 28-day combination study in DIO rats (body weight, EchoMRI body composition); assay type: in vivo, rat; conditions: LAA 10 nmol/kg, GLP-1/GCG 5.4 nmol/kg or both
Experimental: Study Design: Male diet-induced obese (DIO) Sprague-Dawley rats were fed a high fat diet (45% fat, D12451; Research Diets) for 34 weeks prior to study start. […] Research Diets). […] Average body weight for all DIO rats at start of study was 722.4+10.1 grams. Body composition was measured by EchoMRI on day-7 and day 26. In this experiment, the LAA was that of SEQ ID NO: 11, and the GLP-1/GCG dual-agonist was cotadutide. Data reported as mean±standard error of the mean (SEM); data analysis performed using GraphPad Prism-statistical analysis performed using One-way ANOVA with Tukey ad hoc analysis.

DIO Sprague-Dawley rats [3] = test: Example 3: 28-day body weight study in DIO rats; assay type: in vivo, rat; conditions: day 28
Experimental: Study Design: Male DIO Sprague-Dawley rats were fed a high-fat diet (32.5% kcal fat, D12266B; Research Diets) for approximately 8 weeks prior to study start. Rats were dosed once daily SC for 28 days with Vehicle, GLP-1/GCG (1.5 nmol/kg or 5 nmol/kg), LAA (7.5 nmol/kg) or a combination of GLP-1/GCG and LAA (1.5 and 7.5 nmol/kg, or 5 nmol/kg and 7.5 nmol/kg, respectively) with an n=6/group. Body weight was monitored daily throughout the study. Data reported as mean±standard error of the mean (SEM); data analysis performed using GraphPad Prism-statistical analysis performed using One-way ANOVA with Tukey ad hoc analysis (*p<0.05, **p<0.01, ***0<0.001, ****p<0.0001). In this experiment, the LAA was that of SEQ ID NO: 11, and the GLP-1/GCG dual-agonist was cotadutide.

[4] = tested on: DIO male pair-housed rats; test: Example 3 additional study: 28-day body weight, food intake and organ weights in DIO rats; assay type: in vivo, rat
Experimental: (§1) Study design: DIO male pair-housed rats fed a 32.5% high-fat diet (D12266B) for 7 weeks reached a mean body weight (BW) of ˜595 g. Rats were dosed SC daily for 28 days with vehicle (Vh), GLP-1/GCG dual agonist (1.5 or 5 nmol/kg), LAA (2.5 or 7.5 nmol/kg), or combination (1.5+2.5 nmol/kg, 1.5+7.5 nmol/kg, 5+2.5 nmol/kg, or 5+7.5 nmol/kg, respectively). Food intake (FI) and BW were measured daily. In chow fed lean rats, gastric emptying (GE) was measured via X-ray fluoroscopic quantification following SC injections of Vh, GLP-1/GCG dual agonist at 1, 3, or 10 nmol/kg or LAA at 1, 3, or 10 nmol/kg. In a subsequent acute GE study, lean rats received a single dose of Vh, GLP-1/GCG dual agonist (2 nmol/kg), LAA (2 nmol/kg) or GLP-1/GCG dual agonist+LAA combination (2+2 nmol/kg). In this experiment, the LAA was that of SEQ ID NO: 11, and the GLP-1/GCG dual-agonist was cotadutide.

chow fed lean rats = test: Example 3: acute gastric emptying by X-ray fluoroscopic quantification; assay type: in vivo, rat; conditions: acute SC
Experimental: as §1

rat calcitonin receptor = target: T1, rat calcitonin receptor (Rattus norvegicus, UniProt P32214); test: Target engagement estimate (unbound Cmax / unbound in vitro potency), calcitonin receptor; conditions: DACRA 10 nmol/kg vs LAA 30 nmol/kg
T1 construct: expressed in transfected cells; host or cells: HEK293
T1 sequence (P32214 25-516): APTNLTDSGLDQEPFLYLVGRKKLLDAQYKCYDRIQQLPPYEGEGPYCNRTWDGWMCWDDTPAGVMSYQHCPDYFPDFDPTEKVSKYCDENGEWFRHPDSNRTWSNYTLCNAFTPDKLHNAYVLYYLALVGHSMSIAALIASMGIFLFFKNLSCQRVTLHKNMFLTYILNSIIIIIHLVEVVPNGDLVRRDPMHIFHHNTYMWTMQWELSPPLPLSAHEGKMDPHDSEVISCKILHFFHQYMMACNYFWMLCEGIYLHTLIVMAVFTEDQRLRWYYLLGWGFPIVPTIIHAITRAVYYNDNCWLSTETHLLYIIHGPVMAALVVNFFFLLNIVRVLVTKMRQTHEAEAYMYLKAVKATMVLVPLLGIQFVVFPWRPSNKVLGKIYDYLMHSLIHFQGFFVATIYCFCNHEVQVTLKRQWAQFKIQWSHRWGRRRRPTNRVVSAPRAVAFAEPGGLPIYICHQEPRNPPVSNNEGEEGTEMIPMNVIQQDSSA
Experimental: Target engagement was estimated in the following way for each compound. The maximum concentration (Cmax) after subcutaneous injection was measured in separate rat pharmacokinetic studies and was dose-adjusted to the tested dose levels when appropriate, assuming dose linearity. Plasma protein binding was determined in vitro using 3B Pharmaceutical's Escalate Equilibrium Shift Assay or an in-house Surface Plasmon Resonance (SPR) assay. Peptide in vitro potency was determined via HTRF CAMP accumulation assay using HEK293 cells recombinantly expressing the rat calcitonin receptor or rat amylin receptor (calcitonin receptor plus RAMP3) in saline buffer containing 0.1% bovine serum albumin. The in vitro potencies (IC50s) for amylin and calcitonin were adjusted to unbound values by taking into account the albumin concentration in the assay and fraction unbound data, according to an established method (Wan H and Bergström F (2007), High Throughput Screening of Drug-Protein Binding in Drug Discovery, Journal of Liquid Chromatography & Related Technologies, 30:5, 681-700; doi: 10.1080/10826070701190989). Finally, the target engagement was calculated as the unbound Cmax divided by the unbound IC50, both for amylin and calcitonin. […] Uncertainty of parameter estimates was determined by bootstrapping, sampling single measurements randomly with replacement within each experiment (N=500). […]

AMY3R/CTR [5] = test: Relative potency ratio, cAMP accumulation assays with 0.1% BSA, rat receptors; assay type: cell-based; conditions: 0.1% bovine serum albumin, n ≥ 5; potencies relative to pramlintide 100%
Experimental: Target engagement was estimated in the following way for each compound. The maximum concentration (Cmax) after subcutaneous injection was measured in separate rat pharmacokinetic studies and was dose-adjusted to the tested dose levels when appropriate, assuming dose linearity. Plasma protein binding was determined in vitro using 3B Pharmaceutical's Escalate Equilibrium Shift Assay or an in-house Surface Plasmon Resonance (SPR) assay. Peptide in vitro potency was determined via HTRF CAMP accumulation assay using HEK293 cells recombinantly expressing the rat calcitonin receptor or rat amylin receptor (calcitonin receptor plus RAMP3) in saline buffer containing 0.1% bovine serum albumin. The in vitro potencies (IC50s) for amylin and calcitonin were adjusted to unbound values by taking into account the albumin concentration in the assay and fraction unbound data, according to an established method (Wan H and Bergström F (2007), High Throughput Screening of Drug-Protein Binding in Drug Discovery, Journal of Liquid Chromatography & Related Technologies, 30:5, 681-700; doi: 10.1080/10826070701190989). Finally, the target engagement was calculated as the unbound Cmax divided by the unbound IC50, both for amylin and calcitonin. The Emax model was defined as aversion=E0+Emax×(ENG^h/(ENG^h+ED50^h)), where E0 is the baseline aversion, Emax is the maximum induced aversion, ENG is the receptor engagement, and h is the slope (Hill) parameter. Parameter estimation was performed according to a maximum likelihood approach with an additive error model, incorporating data from all compounds simultaneously. Uncertainty of parameter estimates was determined by bootstrapping, sampling single measurements randomly with replacement within each experiment (N=500). Numeric analyses were performed in MATLAB (R2023b; The MathWorks, Natick, MA). The aversion data are given as mean and standard error (N=9-11 per group). In this experiment, the LAA/SARA1 was that of SEQ ID NO: 11, SARA2 was eloralintide, DACRA1 was cagrilintide, and DACRA2 was petrelintide.

AMY3R/CTR [6] = test: Relative potency ratio, cAMP accumulation assays with 0.1% BSA, human receptors; assay type: cell-based; conditions: 0.1% bovine serum albumin, n ≥ 5; potencies relative to pramlintide 100%
[7] = tested on: High-fat diet (DIO) fed rats; test: Example 9: 4-week LAA or DACRA monotherapy in DIO rats; assay type: in vivo, rat; conditions: for BW reduction compared to vehicle / reduction of cumulative food intake: 4 weeks; for proportion of body weight loss that was fat-mass specific: FIG. 8C
Text: Study 1 Design: High-fat diet (DIO) fed rats were used to profile LAA or DACRA monotherapy to evaluate food intake, body weight-lowering and body composition effects in a 4-week study. In this experiment, the LAA was that of SEQ ID NO: 11 and the DACRA was cagrilintide.

[8] = target: T2, rat amylin receptor (calcitonin receptor plus RAMP3) (rat, UniProt P32214 25-516; Q9JJ73 23-147); test: cell-based or functional assay
T2 sequence (looked up) 1: T1 sequence (P32214 25-516)
T2 sequence (looked up) 2: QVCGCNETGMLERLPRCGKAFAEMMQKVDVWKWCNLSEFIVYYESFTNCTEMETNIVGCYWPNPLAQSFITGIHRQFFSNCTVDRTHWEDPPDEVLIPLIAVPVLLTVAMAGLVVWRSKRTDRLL

[9] = target: human amylin receptor 3 (hAMY3R; complex of hCTR and hRAMP3) (human, UniProt P30825 2-629; O60896 24-148, limits assumed); test: cell-based or functional assay
Sequence of human amylin receptor 3 (hAMY3R; complex of hCTR and hRAMP3) (P30825 2-629 limits assumed, chain 1 of 2): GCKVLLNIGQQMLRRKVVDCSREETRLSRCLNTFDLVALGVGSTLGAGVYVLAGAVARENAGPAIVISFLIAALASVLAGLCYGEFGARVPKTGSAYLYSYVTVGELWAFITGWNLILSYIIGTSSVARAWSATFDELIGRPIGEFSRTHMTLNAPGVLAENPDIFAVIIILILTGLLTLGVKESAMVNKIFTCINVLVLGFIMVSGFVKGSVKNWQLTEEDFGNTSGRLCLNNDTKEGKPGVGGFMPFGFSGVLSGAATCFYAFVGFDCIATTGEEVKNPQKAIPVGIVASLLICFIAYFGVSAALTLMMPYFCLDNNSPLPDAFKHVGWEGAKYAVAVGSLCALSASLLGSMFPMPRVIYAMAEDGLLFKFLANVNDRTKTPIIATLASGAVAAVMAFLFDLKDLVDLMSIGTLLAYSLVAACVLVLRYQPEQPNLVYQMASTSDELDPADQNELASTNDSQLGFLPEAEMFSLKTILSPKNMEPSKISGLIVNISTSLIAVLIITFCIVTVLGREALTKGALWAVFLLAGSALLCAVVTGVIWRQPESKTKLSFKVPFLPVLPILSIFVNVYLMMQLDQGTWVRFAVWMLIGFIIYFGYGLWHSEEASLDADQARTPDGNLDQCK
Sequence of human amylin receptor 3 (hAMY3R; complex of hCTR and hRAMP3) (O60896 24-148 limits assumed, chain 2 of 2): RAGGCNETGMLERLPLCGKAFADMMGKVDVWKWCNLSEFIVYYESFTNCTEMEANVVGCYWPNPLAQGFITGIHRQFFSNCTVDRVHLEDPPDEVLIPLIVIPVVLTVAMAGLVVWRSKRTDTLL

## dulaglutide [GLP1-Fc]
DIO Sprague-Dawley rats [1]
  body weight change normalized to vehicle: 1.0%

## HSQGTFTSD-X10-SEYLDSERARDFVAWLEAGG-acid, wherein X10=Lys[ε-γE-Palmitoyl] [GLP-1/GCG]
[2]; SC QD, FIG. 1A
  body weight loss vs Vehicle: lost significantly more body weight than Vehicle treated rats
[2]; day 26
  fat mass change (EchoMRI): lost both fat and lean mass compared to Vehicle treated animals
  lean mass change (EchoMRI): lost both fat and lean mass compared to Vehicle treated animals
DIO Sprague-Dawley rats [3]; GLP-1/GCG 1.5 nmol/kg SC QD
  mean change in body weight normalized to Vehicle: −8.4%
DIO Sprague-Dawley rats [3]; GLP-1/GCG 5 nmol/kg SC QD
  mean change in body weight normalized to Vehicle: −25%
[4]; 28 days SC daily, GLP-1/GCG dual agonist 1.5 nmol/kg
  Vh corrected BW change (BW gain): −8.4%
[4]; 28 days SC daily, GLP-1/GCG dual agonist 5 nmol/kg
  Vh corrected BW change (BW gain): −25.0%
[4]; 28 days SC daily, monotherapy and combination groups
  Cumulative FI normalized to Vh: decreased in a dose-dependent manner
[4]; all GLP-1/GCG dual agonist 5 nmol/kg treated groups
  Liver lipids (%) vs Vh: lower than Vh
[4]; all combination groups, GLP-1/GCG dual agonist monotherapy at 5 nmol/kg
  Liver weights vs. Vh: Liver weights decreased
Chow fed lean rats; 1 nmol/kg
  GE AUC as % of Vehicle: 85%
Chow fed lean rats; 3 nmol/kg
  GE AUC as % of Vehicle: 49%
Chow fed lean rats; 10 nmol/kg
  GE AUC as % of Vehicle: 24%

## cagrilintide [DACRA]
Rat calcitonin receptor
  calcitonin engagement, fold more than LAA: 2-3 fold
AMY3R/CTR [5]
  Relative potency ratio (AMY3R/CTR), Rat: 0.01
AMY3R/CTR [6]
  Relative potency ratio (AMY3R/CTR), Human: 0.08
[7]; 1 nmol/kg
  BW reduction compared to vehicle: −3±0.6%
  reduction of cumulative food intake: −7.1±2.1 % of vehicle
[7]; 3 nmol/kg
  BW reduction compared to vehicle: −5.3±1.1%
  reduction of cumulative food intake: −16±2.5 % of vehicle
[7]; 10 nmol/kg
  BW reduction compared to vehicle: −8.8±1.4%
  reduction of cumulative food intake: −23.9±3.5 % of vehicle
[7]; 20 nmol/kg
  BW reduction compared to vehicle: −11.6±0.9%
  reduction of cumulative food intake: −23.7±1.1 % of vehicle
[7]; end of study, 10 nmol/kg
  fat-mass loss: -15.5 ± 6.0 g
  proportion of body weight loss that was fat-mass specific: 54%
[7]; end of study, 20 nmol/kg
  proportion of body weight loss that was fat-mass specific: 61%
[7]; end of study, FIG. 8B
  lean mass: Lean mass was preserved in the LAA groups, unlike in the DACRA groups

## KCNTATCATQRLANFLVHSSNNFGPILPPTNVGSNTY-NH2 (disulfide 2-7) [Pramlintide]
[8]
  Relative potency ratio (AMY3R/CTR), Rat; cAMP accumulation assay, 0.1% BSA: 1 ratio
[9]
  Relative potency ratio (AMY3R/CTR), Human; cAMP accumulation assay, 0.1% BSA: 1 ratio

## K([γGlu-γGlu-C18 diacid])CNTATCATQRLANFLRHSSNN[αMeF]GPILPPTEVGSNTY-NH2 (disulfide 2-7) [LAA/SARA 1 (lipidated pramlintide analogue of SEQ ID NO: 11)]
[8]
  Relative potency ratio (AMY3R/CTR), Rat; cAMP accumulation assay, 0.1% BSA: 1.6 ratio
[9]
  Relative potency ratio (AMY3R/CTR), Human; cAMP accumulation assay, 0.1% BSA: 0.9 ratio
